ChEMBL document CHEMBL1795207, “Syntheses of cellotriose and cellotetraose analogues as transition state mimics for mechanistic studies of cellulases” (Bioorg Med Chem, 2011)

What follows are compounds tested against T1, Endoglucanase-5 (Mycothermus thermophilus, UniProt P43316) (assay: Binding affinity to Humicola insolens NCE5 assessed as dissociation constant at pH 4).
T1 sequence (P43316 whole entry): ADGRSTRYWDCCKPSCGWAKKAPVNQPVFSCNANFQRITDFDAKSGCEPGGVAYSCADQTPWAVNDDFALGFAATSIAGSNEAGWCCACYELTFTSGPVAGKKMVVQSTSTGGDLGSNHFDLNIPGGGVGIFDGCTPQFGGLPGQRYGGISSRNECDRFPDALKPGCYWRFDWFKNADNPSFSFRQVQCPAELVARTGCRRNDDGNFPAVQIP

Ki [mM] | SMILES
0.42 | O=C[C@H](O)[C@@H](O)[C@H](O[C@@H]1O[C@H](CO)[C@@H](O[C@@H]2O[C@H](CO)[C@@H](O[C@@H]3O[C@H](CO)[C@@H](O[C@@H]4O[C@H](CO)[C@@H](O[C@@H]5O[C@H](CO)[C@@H](O)[C@H](O)[C@H]5O)[C@H](O)[C@H]4O)[C@H](O)[C@H]3O)[C@H](O)[C@H]2O)[C@H](O)[C@H]1O)[C@H](O)CO [CELLOHEXOSE]

These compounds were tested against T1, Endoglucanase-5 (assay: Binding affinity to Humicola insolens NCE5 assessed as dissociation constant at pH 3.0 and at 59 degC by differential scanning calorimetry).

SMILES | Ki [mM]
CO[C@H]1O[C@H](CO)[C@@H](S[C@@H]2O[C@H](CO)[C@@H](O[C@@H]3O[C@H](CO)[C@@H](O)[C@H](O)[C@H]3O)[C@H](O)[C@H]2O)[C@H](O)[C@H]1O | > 30
CO[C@@H]1O[C@H](CO)[C@@H](S[C@@H]2O[C@H](CO)[C@@H](O[C@@H]3O[C@H](CO)[C@@H](O)[C@H](O)[C@H]3O)[C@H](O)[C@H]2O)[C@H](O)[C@H]1O | > 30
CO[C@@H]1O[C@H](CO)[C@@H](S[C@@H]2C=C(CO)[C@@H](O[C@@H]3O[C@H](CO)[C@@H](O)[C@H](O)[C@H]3O)[C@H](O)[C@H]2O)[C@H](O)[C@H]1O | 29

Continued, values first:

Ki [mM] | SMILES
3.9 | CO[C@@H]1O[C@H](CO)[C@@H](O[C@@H]2O[C@H](CO)[C@@H](S[C@@H]3O[C@H](CO)[C@@H](O[C@@H]4O[C@H](CO)[C@@H](O)[C@H](O)[C@H]4O)[C@H](O)[C@H]3O)[C@H](O)[C@H]2O)[C@H](O)[C@H]1O
25 | CO[C@H]1O[C@H](CO)[C@@H](S[C@@H]2C=C(CO)[C@@H](O[C@@H]3O[C@H](CO)[C@@H](O)[C@H](O)[C@H]3O)[C@H](O)[C@H]2O)[C@H](O)[C@H]1O
1.6 | CO[C@@H]1O[C@H](CO)[C@@H](O[C@@H]2O[C@H](CO)[C@@H](S[C@@H]3C=C(CO)[C@@H](O[C@@H]4O[C@H](CO)[C@@H](O)[C@H](O)[C@H]4O)[C@H](O)[C@H]3O)[C@H](O)[C@H]2O)[C@H](O)[C@H]1O
